Assay [1] has as its system BLK (FAM83A tyrosine phosphorylation). Briefly: BLK-mediated FAM83A tyrosine phosphorylation in HEK293T cells. As to conditions: 10 μM; HEK293T with or without BLK overexpression; n = 3. The assay is classed as cell-based. The source says:
Cell lysates were used for IP and western blotting with the indicated antibodies (n = 3). f Level of total tyrosine phosphorylation of Flag-tagged FAM83A and its Y138A mutant in HEK293T cells after BLK kinase knockdown using two specific small interfering RNAs (siBLK#1 and siBLK#2). Cell lysates were used for IP and western blotting with the indicated antibodies (n = 3). g, h Level of total tyrosine phosphorylation of Flag-tagged FAM83A and its Y138A mutant in HEK293T cells with or without BLK kinase overexpression and saracatinib (BLK inhibitor, 10 μM)/PP2 (LCK or FYN inhibitor, 10 μM) treatment. Cell lysates were used for IP and western blotting with the indicated antibodies (n = 3). i The BLK kinases was obtained from the immunoprecipitate of HEK293T cell lysates that transfected with either HA-tagged BLK wild-type, BLK kinase-dead mutant (Y389A) or BLK constitutive activated mutant with the deletion of the C-terminal auto-inhibitory domain (BLK ΔC) using HA tag antibody. Then the BLK kinases were incubated with the in vitro purified GST-tagged FAM83A protein at 30 °C for 30 min with or without BLK inhibitor saracatinib, and then the reaction products were subjected to western blotting assay (n = 3)
Immunoprecipitation and Western blotting were performed as described previously.[35] GAPDH protein levels were used as loading controls. […]

The test system of assay [2] is pancreatic cancer stem cells (PaCSCs), primary PDAC cultures. As to conditions: primary PDAC cultures from patient-derived xenografts; ref not given; cited from earlier work. The source says: Intricate communication between pancreatic cancer cells and their surrounding environment is driven by a dynamic signaling network of cellular and matrix remodeling enzymes, cytokines, chemokines, and growth factors, which collectively promote tumor growth and treatment resistance. The non-receptor SRC kinase family signaling network is increasingly recognized as a key player in pancreatic tumorigenesis.[38],[39] Treatment of primary PDAC cultures established from patient-derived xenografts with dasatinib or PP2 reduced the clonogenic, self-renewal, and tumor-initiating capacity of pancreatic ...

Assay [3] concerns PANC-1 xenograft tumor (FAM83A re-expression). The experiment in a line: Mouse xenograft of FAM83A re-expressing PANC-1 cells, Wnt inhibitor. The note with it: 20 mg/kg intravenous (Fig. 6 legend) or 50 mg/kg intraperitoneal twice a week (methods); n = 6 or 5. The format is in vivo, nude mice (human PANC-1 cells). (Xenograft models place foreign cells or tissue in a host animal.)
Protocol: The Wnt inhibitor XAV939 (20 mg/kg) was intravenously injected into the caudal vein of the nude mice one week later after xenograft formation. c Growth curve showing the changes in the tumor volume in mice in different groups from the injection (n = 6 or 5). d Weight of the excised tumors in each group (n = 6 or 5). e, f Representative images of lung and colon metastasis of the nude mice model that tail intravenous injected with PANC-1 cells stably expressed Flag-tagged wild-type FA[MUT], [MUT], or [MUT] mutants were shown. g The number of lung or colon metastasis was quantified per field (n = 5). h, i Representative images and quantification of the soft agarose and plate colony formation assays of PANC-1 cells stably expressed Flag-tagged wild-type FA[MUT], [MUT], or [MUT] mutants (n = 3). j, k Representative images and quantification of the transwell assays without matrigel of PANC-1 cells stably expressed Flag-tagged wild-type FA[MUT], [MUT] or [MUT] mutants (n = 3). l Representative H&E staining images and immunohistochemical images of Ki67, C-myc, and AXIN2 expression in excised tumors tissues. *P < 0.05; **P < 0.01; ***P < 0.001. […] The length and width of the mouse xenograft tumors were measured every 5 days with calipers, and tumor volume (V) was calculated with the following formula: V = [(length × width × width)/2]. […]

We go through 4 compounds from PMC9935901, “B-lymphoid tyrosine kinase-mediated FAM83A phosphorylation elevates pancreatic tumorigenesis through interacting with β-catenin” (Signal Transduction and Targeted Therapy, 2023).

Consider `CC(C)(C)n1nc(-c2ccc(Cl)cc2)c2c(N)ncnc21` [PP2], for which, in assay [1], the FAM83A tyrosine phosphorylation result is recorded as “not LYN kinase inhibitor PP2”. Moreover, in assay [2], the “clonogenic, self-renewal, and tumor-initiating capacity of PaCSCs” value is “reduced the clonogenic, self-renewal, and tumor-initiating capacity of pancreatic cancer stem cells”.

`Oc1nc(-c2ccc(C(F)(F)F)cc2)nc2c1CSCC2` [XAV939]: the xenograft tumor size entry in assay [3] is reported as “inhibits the xenograft tumor size mediated by FAM83A re-expression”.

As for `Cc1nc(Nc2ncc(C(=O)Nc3c(C)cccc3Cl)s2)cc(N2CCN(CCO)CC2)n1` [dasatinib], the “clonogenic, self-renewal, and tumor-initiating capacity of PaCSCs” value in assay [2] is “reduced the clonogenic, self-renewal, and tumor-initiating capacity of pancreatic cancer stem cells”. Regarding `CN1CCN(CCOc2cc(OC3CCOCC3)c3c(Nc4c(Cl)ccc5c4OCO5)ncnc3c2)CC1` [saracatinib], the FAM83A tyrosine phosphorylation result in assay [1] is recorded as “could be reduced by the BLK kinase inhibitor saracatinib”.
